# Read-outs that look alike come from different tables or passages of the source.
# How the values were obtained:
# [1] = tested on: metabolically-resistant Hikone-R strain of Drosophila (elevated cytochrome P450); format: in vivo; conditions: Hikone-R, 24 hr
# Experimental: (§1) Four Drosophila strains were used, all obtained from the Bloomington Drosophila Stock Center (Indiana University; Bloomington, Ind.). The Canton-S strain was used as the insecticide-susceptible standard. […] Two resistant neurological-mutant strains were also tested. […] Flies were reared in 100-ml vials capped with acetate plugs (Fisher Scientific; Suwanee, Ga.) on a commercial diet (JAZZ-MIX; Fisher Scientific). […] Mixed-sex adults, less than 1-wk old, were used in bioassays.
# (§2) All volatile insecticide stocks were prepared at 100 μg/μl in analytical grade acetone. Rather than weigh the highly volatile liquid insecticides (i.e., all compounds except benzothiophene), weight was determined based on the density-volume relationship of each compound. […] The insecticide synergists PBO (piperonyl butoxide) and DEF (SSS-tributyl-phosphoro-trithioate) were obtained from Fluka Chemical Co. (Basel, Switzerland) and Mobay Chemical Co. (Kansas City, Mo.). […] Synergist stocks were prepared at 100 μg/ml in analytical grade acetone.
# (§3) Briefly, bioassays took place in 0.5-l glass jars with metal lids. Mixed-sex flies were isolated from lab colonies and placed in 4-ml dram vials in groups of ten, along with a dried piece of laboratory diet. The dram vials were capped with open-top septum caps that were covered with fine mesh (held in place by non-toxic glue). For bioassays, the assembled dram vials were placed into the 0.5-l jars along with a folded filter paper “tent” (Whatman #1; Vineland, N.J.). The filter paper was treated with either an insecticide dilution or acetone, the jar was sealed with the metal lid, and the bioassay proceeded for 24-hr at room temperature. Mortality was scored based on a complete lack of movement by the flies. Four concentrations plus an acetone control were tested for all insecticides. Between five and ten replicates were performed for each concentration range on each strain-insecticide combination. Synergist bioassays were performed with a slight modification. Synergist stocks were applied to dram vials at 100 μl per vial to provide assay concentrations of 10 μg per vial. […] After treatment, vials were held at an angle in a fume hood and rotated ¼-turn each minute until the acetone evaporated. Flies and diet were added as above and held for 1-hr. Assays were initiated, run, and scored as above.
# (§4) Probit analysis was performed using PROC PROBIT in the SAS software package (SAS Institute; Cary, N.C.). If control mortality ever exceeded 10% in a given replicate, that replicate was discarded.
# [2] = tested on: para-ts1 (para-R) strain of Drosophila (sodium channel point mutation); format: in vivo; conditions: for Slope ± Std. Error (probit mortality line): Table 2, para-R, 24 hr
# Experimental: as §1, §2, §3, §4
Substance,Slope ± Std. Error (probit mortality line) ([1]; Table 2),"Slope ± Std. Error (probit mortality line) ([1]; Table 3, no synergist)",Slope ± Std. Error (probit mortality line) [2],"response of para-ts1 relative to Canton-S (LC50 ratio, FIG. 7B), in words ([2]; significance at p<0.05, method of Robertson and Preisler)"
ethyl formate,12.50 ± 7.10,12.50 ± 7.10,7.11 ± 1.34,non-significant tolerance
methyl formate,2.72 ± 0.68,2.72 ± 0.68,8.84 ± 1.46,–

# Source: patent publication US20070154393A1, “Bioassay for volatile low molecular weight insecticides and methods of use” (priority 2005, published 2007)
